Data from patent US20140073778A9, “CONJUGATES COMPRISING HYDROXYALKYL STARCH AND A CYTOTOXIC AGENT AND PROCESS FOR THEIR PREPARATION” (priority 2010, published 2014).
Marks after values point to notes of the source that are not given here.

How the values were obtained:
[1] = test system: human lung carcinoma LXFL-529; experiment: Tumor growth inhibition (relative tumor volume) in LXFL-529 xenograft model; format: in vivo, human (xenograft in NMRI nu/nu mice)
Source text: (§1) Mouse strain: NMRI nu/nu, female Animals supplied by: Charles River, Germany Age of mice at implantation: 5-7 weeks
(§2) The tumor xenografts LXFL-529 and MAXF-401 (Fiebig H H, Berger D P, Dengler W A, Wallbrecher E, Winterhalter B R: Combined In Vitro/In Vivo Test Procedure with Human Tumor Xenografts for New Drug Development. Contrib. Oncol., Basel, Karger, 1992, Vol. 42, pp 321-351) used in this study were derived from surgical specimen from patients treated at the University Hospital in Freiburg, Germany, and directly implanted into nude mice. Prior to surgery, most of the patients had not received any chemotherapy.
(§3) Tumor fragments were obtained from xenografts in serial passage in nude mice. After removal from donor mice, tumors were cut into fragments (4-5 mm diameter) and placed in PBS until subcutaneous implantation. Recipient mice were anaesthetized by inhalation of isoflurane. A small incision was made in the back and one tumor fragment per animal was transplanted with tweezers. The mice were monitored daily.
(§4) At randomization, tumor-bearing animals were stratified according to tumor volume into treatment and vehicle (control) groups. Only animals carrying one tumor of appropriate size (approximately 50-250 mm^3) were considered for randomization. Mice were randomized when the required number of mice qualified for randomization. The day of randomization was designated as day 0, which was also the first day of dosing.
(§5) All test items were formulated in 0.9% NaCl solution and given as i.v. bolus injection.
(§6) Measurement of tumor volume and body weight as well as calculations of relative tumor volumes were carries out analgue to the procedure described in 2.3.

[2] = test system: human colon carcinoma HT-29; experiment: Tumor growth inhibition (relative tumor volume, T/C) in s.c. HT-29 xenograft model; format: in vivo, human (xenograft in NMRI:nu/nu mice)
Method: The cells were obtained from ATCC and are cryo-preserved within the EPO tumor bank. They were thawed, expanded in vitro and transplanted as cell suspension subcutaneously (s.c.) in female NMRI:nu/nu mice. […] It was therefore selected for this study.
For experimental use 10^7 tumor cells/mouse from the in vitro passage were transplanted s.c. into the flank of each of 10 mice/group at day 0.
(§7) […] The application volume was 0.2 ml/20 g mouse body weight. The test compounds, the vehicle controls and the reference compounds were all given intravenously (i.v.).
(§8) Tumor growth inhibition was used as therapeutic parameter. Additionally, body weight change was determined as signs for toxicity (particularly, potential hematological or gastrointestinal side effects).
Tumor diameters were measured twice weekly with a caliper. Tumor volumes were calculated according to V=(length×(width)^2)/2. For calculation of the relative tumor volume (RTV) the tumor volumes at each measurement day were related to the day of first treatment. At each measurement day the median and mean tumor volumes per group and also the treated to control (T/C) values in percent were calculated.
Descriptive statistics were performed on the data of body weight and tumor volume. […] Statistical evaluation was performed with the U-test of Mann and Whitney with a significance level of p≦0.05, using the Windows program […] 6.
Solutions were prepared immediately before injection by solving the conjugates in saline solution by vortexing in combination with centrifugation until a clear solution of the necessary concentration of the drug was obtained.

[3] = Body weight change as sign of toxicity in HT-29 xenograft-bearing mice; format: in vivo, NMRI:nu/nu mice
Method: as §7, §8
Individual body weights of mice were determined twice weekly and mean body weight per group was related to the initial value in percent (body weight change, BWC).
On the day of necropsy mice were sacrificed by cervical dislocation and inspected for gross organ changes.
The loss of body weight is known to be an indicator of gastrointestinal and hepatotoxicity of the tested compound.

[4] = test system: human mammary carcinoma (MAXF-401); experiment: Tumor growth inhibition (relative tumor volume) in MAXF-401 xenograft model; format: in vivo, human (xenograft in NMRI nu/nu mice)
Source text: as §1, §2, §3
as §4, with “The day of randomization was designated as day 0, which was also the first day of dosing.” left out

[5] = Body weight change / toxicity in MAXF-401 xenograft-bearing mice; format: in vivo, NMRI nu/nu mice; settings: Table 18, CA4P 50, 40 mg/kg/inj. d 0, 10, CCs1 60 d 0, CCs2 60, 40 d 0, 10
Method: All experiments were conducted according to the guidelines of the German Animal Welfare Act (Tierschutzgesetz). Animal health was examined prior to tumor implantation and randomization to ensure that only animals without any symptoms of disease were selected to enter testing procedures. During the experiments, animals were monitored daily regarding tumor burden, general condition, feed and water supply.
as §5, §6

Q: For `COc1cc([C@@H]2c3cc4c(cc3[C@@H](O[C@@H]3O[C@@H]5CO[C@@H](C)O[C@H]5[C@H](O)[C@H]3O)[C@H]3COC(=O)[C@H]23)OCO4)cc(OC)c1O` [V-16 (Etoposid)], which “Tumor volume cm^3/d 16” value ([1]; Table 19, day 16, treatment d 0, 3, 7, Etoposid 20 mg/kg/inj., CEt1 20, 40, 50 mg/kg/inj.) is on record?
A: 0.293 +/− 0.137 cm^3

Q: What about the “RTV T/C (%) Optimum (at day)” value ([1]; Table 19, optimum at day 16, treatment d 0, 3, 7, Etoposid 20 mg/kg/inj., CEt1 20, 40, 50 mg/kg/inj.) of the same compound?
A: 15.5 (16) %

Q: What about the “RTV T/C (%) re-normalized on day 7” value ([1]; Table 19, re-normalized on day 7, treatment d 0, 3, 7, Etoposid 20 mg/kg/inj., CEt1 20, 40, 50 mg/kg/inj.) of the same compound?
A: 22.6%

Q: Which “loss of tumor volume between d7 and d16” value ([1]; LXFL-529 xenografts in nude mice, tumor shrinkage after day 7) does the source give for `COc1cc([C@@H]2c3cc4c(cc3[C@@H](O[C@@H]3O[C@@H]5CO[C@@H](C)O[C@H]5[C@H](O)[C@H]3O)[C@H]3COC(=O)[C@H]23)OCO4)cc(OC)c1O` [etoposide, Etoposide] here?
A: 26%

Q: And the “tumors still shrinking or at least stabile” value ([1]; LXFL-529 xenografts, at the last day of the experiment)?
A: 2/5

Q: With `CCc1c2c(nc3ccc(OC(=O)N4CCC(N5CCCCC5)CC4)cc13)-c1cc3c(c(=O)n1C2)COC(=O)[C@]3(O)CC` [Irinotecan] as the compound, how does the “RTV T/C (%) Optimum (at day)” value ([2]; Table 14, optimum at day 54, Irinotecan 15 mg/kg/inj. d 9-13, conjugates 60 mg/kg/inj. d 9) read?
A: 48.2%

Q: And the “RTV T/C (%) Optimum (at day)” value ([2]; Table 15, Irinotecan 15 mg/kg/inj. d 8-12, conjugates 60 mg/kg/inj. d 8, day of optimum printed below value (30; CSN10 34; CSN13 13))?
A: 27.7* %

Q: What about the “RTV T/C (%) Optimum (at day)” value ([2]; Table 16, 60 mg/kg/inj. d 7, day of optimum in parentheses (21-42)) of the same compound?
A: 66.3%

Q: And the “Toxic death (day)” value ([3]; Table 14, number of toxic deaths of 8 mice, Irinotecan 15 mg/kg/inj. d 9-13, conjugates 60 mg/kg/inj. d 9, day of death in parentheses)?
A: 1

Q: What about the “Toxic death (at day)” value ([3]; Table 17, number of toxic deaths per group (day), treatment d 8, Irinotecan 60, CSN21 30, CSN23 60, CSN22 and CIr1-3 80 mg/kg/inj.) of the same compound?
A: 1 (20)

Q: With `COc1ccc(/C=C\c2cc(OC)c(OC)c(OC)c2)cc1OP(=O)([O-])[O-].[Na+].[Na+]` [combretastatin A4 phosphate, Combretastatin A4 phosphate disodium salt] as the compound, how does the “inhibition of tumor growth” value ([4]; MAXF-401 xenografts in nude mice, i.v. bolus) read?
A: only modest anti-tumor activity

Q: And the “RTV T/C (%) Optimum (at day)” value ([4]; Table 18, CA4P 50, 40 mg/kg/inj. d 0, 10, CCs1 60 d 0, CCs2 60, 40 d 0, 10, day of optimum in parentheses)?
A: 59.8 (13) %

Q: And the “BWC [%] (at day)” value ([5]; day of value in parentheses)?
A: −1.8 (7) %

Q: And the “Mortality (at day)” value ([5]; deaths of 4 mice (day))?
A: 0
